{"source": "paper PMC6155222", "about": "“3-Substituted N-Benzylpyrazine-2-carboxamide Derivatives: Synthesis, Antimycobacterial and Antibacterial Evaluation” (Molecules : A Journal of Synthetic Chemistry and Natural …, 2017)", "key": {"[1]": {"system": "Mycobacterium tuberculosis H37Rv", "assay": "Microplate Alamar Blue Assay (MABA), microdilution panel method", "format": "cell-based"}, "[2]": {"assay": "Determination of lipophilicity by RP-HPLC (log k)", "conditions": "RP-HPLC capacity factor, MeOH 70% / H2O 30%, C18, 30 °C", "procedure": "Log k was determined using an Agilent Technologies 1200 SL liquid chromatograph with Diode-array Detector SL G1315C (Agilent Technologies Inc., Colorado Springs, CO, USA), with pre-column ZORBAX XDB-C18 5 μm, 4 mm × 4 mm, Part No. 7995118-504 (Agilent Technologies Inc.) and column ZORBAX Eclipse XDB-C18 5 μm, 4.6 mm × 250 mm, Part No. 7995118-585 (Agilent Technologies Inc.). The separation process was controlled by Agilent ChemStation, version B.04.02, extended by a spectral module (Agilent Technologies Inc.). The mobile phase consisted of MeOH (HPLC grade, 70%) and H2O (HPLC-Milli-Q Grade, 30%).\nThe flow rate was 1.0 mL/min, samples were injected in a volume of 20 μL, and the column temperature was 30 °C. A value of 210 nm as the detection wavelength and 270 nm as the monitor wavelength were used. Retention times (tR) were measured in minutes. The dead time of the system (tD) was determined as the retention time of the KI methanol solution. Capacity factors k for individual compounds were calculated according to the formula k = (tR − tD)/tD. Log k, calculated from the capacity factor k, as used as the lipophilicity index converted to log scale."}, "[3]": {"system": "Staphylococcus epidermidis H 6966/08", "assay": "Antibacterial microdilution broth method", "format": "cell-based", "conditions": "Staphylococcus epidermidis, H6966/08, 24 h; read-out: MIC after 24 h S. epidermidis", "method": "(§1) Microdilution broth method. Antibacterial evaluation was performed against eight bacterial strains from the Czech Collection of Microorganisms (Brno, Czech Republic) (Staphylococcus aureus CCM 4516/08, Escherichia coli CCM 4517, Pseudomonas aeruginosa CCM 1961) or clinical isolates from the Department of Clinical Microbiology, University Hospital and Faculty of Medicine in Hradec Králové, Charles University in Prague, Czech Republic (Staphylococcus aureus H 5996/08-methicilin resistant (MRSA), Staphylococcus epidermidis H 6966/08, Enterococcus sp. J 14365/08, Klebsiella pneumoniae D 11750/08, Klebsiella pneumoniae J 14368/08-ESBL positive). All strains were subcultured on Mueller-Hinton agar (MHA) (Difco/Becton Dickinson, Detroit, MI, USA) at 35 °C and maintained on the same medium at 4 °C. The compounds were dissolved in DMSO, and the antibacterial activity was determined in Mueller-Hinton liquid broth (Difco/Becton Dickinson), and buffered to pH 7.0. Controls consisted of medium and DMSO alone. […] The minimum inhibitory concentration (MIC), defined as the minimum concentration to prevent the visible growth compared to control, was determined after 24 and 48 h of static incubation at 35 °C. The standards were neomycin, bacitracin, penicillin G, ciprofloxacin, and phenoxymethylpenicillin."}, "[4]": {"system": "Staphylococcus aureus CCM 4516/08", "assay": "Antibacterial microdilution broth method", "format": "cell-based", "conditions": "CCM4516, 24 h, read-out: MIC after 24 h S. aureus", "method": "as §1"}, "[5]": {"system": "Staphylococcus aureus H 5996/08-methicilin resistant (MRSA)", "assay": "Antibacterial microdilution broth method", "format": "cell-based", "conditions": "Staphylococcus aureus, MRSA, 24 h; read-out: MIC after 24 h MRSA", "method": "as §1"}, "[6]": {"system": "Mycobacterium smegmatis CCM 4622 (ATCC 607)", "assay": "Antimycobacterial screening, microdilution broth panel method with resazurin", "format": "cell-based", "conditions": "Mycolicibacterium smegmatis, 48 h + 4 h", "method": "An antimycobacterial assay was performed with fast growing Mycobacterium smegmatis CCM 4622 (ATCC 607) from the Czech Collection of Microorganisms (Brno, Czech Republic). The technique used for activity determination was a microdilution broth panel method using 96-well microtitration plates. The culturing medium was Middlebrook 7H9 (MB) broth (Sigma-Aldrich), enriched with 0.4% of glycerol (Sigma-Aldrich) and 10% of Middlebrook OADC growth supplement (Himedia, Mumbai, India). Tested compounds were dissolved in DMSO (Sigma-Aldrich), and the MB broth was then added to obtain a concentration of 2000 μg·mL^−1. Standards used for activity determination were isoniazid (INH), rifampicin (RIF), and ciprofloxacin (CPX) (Sigma-Aldrich). Final concentrations were reached by binary dilution and the addition of mycobacterial suspension, and were set as 500, 250, 125, 62.5, 31.25, 15.625, 7.81, and 3.91 μg·mL^−1, except for the standards of ciprofloxacin and rifampicin, where the final concentrations were 12.5, 6.25, 3.125, 1.56, 0.78, 0.39, 0.195, and 0.098 μg·mL^−1. […] Plates were also sealed with polyester adhesive film and incubated in the dark at 37 °C, without agitation. The addition of 0.01% solution of resazurin sodium salt followed after 48 h. This stain was prepared by dissolving resazurin sodium salt (Sigma-Aldrich) in deionised water, producing a 0.02% solution. Then, a 10% aqueous solution of Tween 80 (Sigma-Aldrich) was prepared. Both liquids were mixed up making use of the same volumes and filtered through a syringe membrane filter. Microtitration panels were then incubated for a further 4 h. Antimycobacterial activity was expressed as the minimal inhibition concentration (MIC) and the value was read on the basis of stain colour change (blue colour—active compound; pink colour—not active compound). […] All experiments were conducted in duplicate."}, "[7]": {"assay": "Cytotoxicity assay, CellTiter 96 Aqueous One Solution", "format": "cell-based", "conditions": "human, HepG2 cells; for IC50 at 24 h: 24 h exposure", "method": "The human liver hepatocellular carcinoma cell line HepG2 (passage 35–36), purchased from Health Protection Agency Culture Collections (ECACC, Salisbury, UK), was routinely cultured in Minimum Essential Eagle Medium MEM (Sigma-Aldrich) supplemented with 10% fetal bovine serum (PAA Laboratories GmbH, Pasching, Austria), 2mM L-glutamine solution (Sigma-Aldrich), and 1% non-essential amino acid solution (Sigma-Aldrich), in a humidified atmosphere containing 5% CO2 at 37 °C.\nFor subculturing, the cells were harvested after trypsin/EDTA (Sigma-Aldrich) treatment at 37 °C. To evaluate the cytotoxicity, the HepG2 cells treated with the tested substances were used as experimental groups, whereas untreated HepG2 cells served as control groups.\nThe HepG2 cells were seeded in a density of 1 × 10^4 cells per well on a 96-well plate. The following day (24 h after seeding), they were treated with tested substances dissolved in DMSO (maximal incubation concentration of DMSO was 1%). […] The treatment was carried out in a humidified atmosphere containing 5% CO2 at 37 °C, in triplicate, for 24 h. The controls representing 100% cell viability, 0% cell viability (the cells treated with 10% DMSO), no-cell controls, and vehiculum controls were incubated in triplicate, simultaneously. After 24 h exposure, the reagent from the kit CellTiter 96® Aqueous One Solution Cell Proliferation Assay (Promega) was added, according to the recommendation of the manufacturer. After 2 h incubation at 37 °C in humidified, 5% CO2 atmosphere, the absorbance was recorded at 490 nm. Inhibitory curves were constructed for each compound, plotting incubation concentrations vs. percentage of absorbance relative to untreated control. The standard toxicological parameter IC50 was calculated by a nonlinear regression analysis of the inhibitory curves using GraphPad Prism software (version 6, GraphPad Software, Inc., La Jolla, CA, USA)."}, "[8]": {"system": "M. avium ssp. avium Chester CNCTC My 80/72", "assay": "Microplate Alamar Blue Assay (MABA), microdilution panel method", "format": "cell-based", "conditions": "Mycobacterium avium"}, "[9]": {"system": "M. kansasii Hauduroy CNCTC My 235/80", "assay": "Microplate Alamar Blue Assay (MABA), microdilution panel method", "format": "cell-based", "conditions": "Mycobacterium kansasii"}}}
{"smiles": "COc1ccc(CNC(=O)c2nccnc2NCc2ccc(OC)cc2)cc1", "note": "[Compound 3a, N-(4-Methoxybenzyl)-3-((4-methoxybenzyl)amino)pyrazine-2-carboxamide]", "values": [{"measurement": "MIC", "setting": "[1]; pH 6.6", "result": 50, "unit": "µg/mL"}, {"measurement": "MIC", "setting": "[1]; value in parentheses", "result": 132, "unit": "µM"}, {"measurement": "Log k", "setting": "[2]", "result": 0.981}, {"measurement": "MIC", "setting": "[3]", "result": "> 500", "unit": "µM"}, {"measurement": "MIC", "setting": "[4]", "result": 15.6, "unit": "µM"}, {"measurement": "MIC", "setting": "[5]", "result": 62.5, "unit": "µM"}, {"measurement": "MIC", "setting": "[6]", "result": "> 500", "unit": "µg/mL"}, {"measurement": "IC50 at 24 h", "setting": "[7]", "result": "> 100", "unit": "µM"}]}
{"smiles": "O=C(NCc1ccccc1Cl)c1nccnc1Cl", "note": "[Compound 5, 3-Chloro-N-(2-chlorobenzyl)pyrazine-2-carboxamide]", "values": [{"measurement": "MIC", "setting": "[1]; pH 6.6", "result": "> 100", "unit": "µg/mL"}, {"measurement": "Log k", "setting": "[2]", "result": 0.033}, {"measurement": "MIC", "setting": "[3]", "result": 15.6, "unit": "µM"}, {"measurement": "MIC", "setting": "[4]", "result": 7.81, "unit": "µM"}, {"measurement": "MIC", "setting": "[5]", "result": 500, "unit": "µM"}, {"measurement": "MIC", "setting": "[6]", "result": 250, "unit": "µg/mL"}, {"measurement": "selectivity ratio at 24 h", "setting": "[7]; HepG2 IC50 / MIC S. aureus, read-out: selectivity index, SI = IC50/MIC", "result": 108}, {"measurement": "IC50 at 24 h", "setting": "[7]", "result": 847, "unit": "µM"}]}
{"smiles": "O=C(NCc1ccc(Cl)cc1)c1nccnc1NCc1ccc(Cl)cc1", "note": "[Compound 7a, N-(4-Chlorobenzyl)-3-((4-chlorobenzyl)amino)pyrazine-2-carboxamide]", "values": [{"measurement": "MIC", "setting": "[1]; pH 6.6", "result": "> 50", "unit": "µg/mL"}, {"measurement": "MIC", "setting": "[8]", "result": "> 50", "unit": "µg/mL"}, {"measurement": "Log k", "setting": "[2]", "result": 1.533}, {"measurement": "MIC", "setting": "[9]", "result": "> 50", "unit": "µg/mL"}, {"measurement": "MIC", "setting": "[6]", "result": "> 250", "unit": "µg/mL"}]}
{"smiles": "O=C(NCc1ccc(Cl)c(Cl)c1)c1nccnc1NCc1ccc(Cl)c(Cl)c1", "note": "[Compound 9a, N-(3,4-Dichlorobenzyl)-3-((3,4-dichlorobenzyl)amino)pyrazine-2-carboxamide]", "values": [{"measurement": "MIC", "setting": "[1]; pH 6.6", "result": 12.5, "unit": "µg/mL"}, {"measurement": "MIC", "setting": "[1]; value in parentheses", "result": 27, "unit": "µM"}, {"measurement": "Log k", "setting": "[2]", "result": 1.997}, {"measurement": "MIC", "setting": "[6]", "result": "> 500", "unit": "µg/mL"}, {"measurement": "IC50 at 24 h", "setting": "[7]", "result": "> 100", "unit": "µM"}]}
{"smiles": "NNC(=O)c1ccncc1", "note": "[INH, isoniazid, reference compound]", "values": [{"measurement": "MIC", "setting": "[1]; pH 6.6", "result": 0.2, "unit": "µg/mL"}, {"measurement": "MIC", "setting": "[8]", "result": "6.25 to 12.5", "unit": "µg/mL"}, {"measurement": "MIC", "setting": "[9]", "result": "3.13 to 12.5", "unit": "µg/mL"}, {"measurement": "MIC", "setting": "[6]", "result": "7.81 to 15.6", "unit": "µg/mL"}]}
